In ChEMBL document CHEMBL5724806, “Unraveling interindividual differences and functional consequences of gut microbial metabolism of immunosuppressants” (2024):

Experiments:
Assay type in all cases: ADME
[1] = (§1) The drug is tested on Blautia hansenii strain: DSM20583 for biotransformation under anaerobic condition. The drug concentrations were measured over 6 timepoints collected between 0 and 12 hours of incubation by liquid-chromatography-coupled mass spectrometry (LC–MS); design: dose 5 uM, timepoint 0, 1.5, 3, 6, 9, 12 hours; conditions: 5 µM
[2] = The drug is tested on Clostridium ramosum strain: DSM1402 for biotransformation under anaerobic condition. The drug concentrations were measured over 6 timepoints collected between 0 and 12 hours of incubation by liquid-chromatography-coupled mass spectrometry (LC–MS); design: dose 5 uM, timepoint 0, 1.5, 3, 6, 9, 12 hours; conditions: thomasclavelia ramosa, 5 µM
[3] = The drug is tested on Gemella haemolysans strain: DSM107751 for biotransformation under anaerobic condition. The drug concentrations were measured over 6 timepoints collected between 0 and 12 hours of incubation by liquid-chromatography-coupled mass spectrometry (LC–MS); design: dose 5 uM, timepoint 0, 1.5, 3, 6, 9, 12 hours; conditions: 5 µM
[4] = The drug is tested on Lactobacillus fermentum strain: DSM20052 for biotransformation under anaerobic condition. The drug concentrations were measured over 6 timepoints collected between 0 and 12 hours of incubation by liquid-chromatography-coupled mass spectrometry (LC–MS); design: dose 5 uM, timepoint 0, 1.5, 3, 6, 9, 12 hours; conditions: limosilactobacillus fermentum, 5 µM
[5] = The drug is tested on Lactobacillus reuteri strain: DSM20016 for biotransformation under anaerobic condition. The drug concentrations were measured over 6 timepoints collected between 0 and 12 hours of incubation by liquid-chromatography-coupled mass spectrometry (LC–MS); design: dose 5 uM, timepoint 0, 1.5, 3, 6, 9, 12 hours; conditions: limosilactobacillus reuteri, 5 µM
[6] = The drug is tested on Escherichia coli strain: DSM27469 for biotransformation under anaerobic condition. The drug concentrations were measured over 6 timepoints collected between 0 and 12 hours of incubation by liquid-chromatography-coupled mass spectrometry (LC–MS); design: dose 5 uM, timepoint 0, 1.5, 3, 6, 9, 12 hours; conditions: 5 µM
[7] = The drug is tested on Akkermansia muciniphila strain: DSM22959 for biotransformation under anaerobic condition. The drug concentrations were measured over 6 timepoints collected between 0 and 12 hours of incubation by liquid-chromatography-coupled mass spectrometry (LC–MS); design: dose 5 uM, timepoint 0, 1.5, 3, 6, 9, 12 hours; conditions: 5 µM
[8] = (§2) The drug is tested on Escherichia coli strain: DSM27469 for biotransformation under microaerobic condition. The drug concentrations were measured over 6 timepoints collected between 0 and 12 hours of incubation by liquid-chromatography-coupled mass spectrometry (LC–MS); design: dose 5 uM, timepoint 0, 1.5, 3, 6, 9, 12 hours; conditions: 5 µM
[9] = as §1, with “the gut metagenome community of A-08 with ENA study accession number: PRJEB31790” for “Blautia hansenii strain: DSM20583”, “7” for “6”; design: dose 5 uM, timepoint 0, 0.75, 1.5, 3, 6, 9, 12 hours; conditions: 5 µM
[10] = as §2, with “the gut metagenome community of P-03 with ENA study accession number: PRJEB31790” for “Escherichia coli strain: DSM27469”, “7” for “6”; design: dose 5 uM, timepoint 0, 0.75, 1.5, 3, 6, 9, 12 hours; conditions: 5 µM

| SMILES | Bacterial Biotransformation [1] | Bacterial Biotransformation [2] | Bacterial Biotransformation [4] | Bacterial Biotransformation [5] | Bacterial Biotransformation [6] | Bacterial Biotransformation [7] | Bacterial Biotransformation [8] | Bacterial Biotransformation [9] | Bacterial Biotransformation [10] | Bacterial Biotransformation [3] |
| --- | --- | --- | --- | --- | --- | --- | --- | --- | --- | --- |
| CCC(C)(C)C(=O)O[C@H]1C[C@@H](C)C=C2C=C[C@H](C)[C@H](CC[C@@H]3C[C@@H](O)CC(=O)O3)[C@H]21 [SIMVASTATIN] | Compound NOT metabolized | Compound NOT metabolized | Compound NOT metabolized | Compound NOT metabolized | Compound NOT metabolized | Compound NOT metabolized | Compound NOT metabolized | Compound NOT metabolized | Compound NOT metabolized | Compound NOT metabolized |
| C[C@]12C=CC(=O)C=C1CC[C@@H]1[C@@H]2[C@@H](O)C[C@@]2(C)[C@H]1CC[C@]2(O)C(=O)CO [PREDNISOLONE] | Compound NOT metabolized | Compound NOT metabolized | Compound NOT metabolized | Compound NOT metabolized | Compound NOT metabolized | Compound NOT metabolized | Compound NOT metabolized | Compound metabolized | Compound metabolized | Compound NOT metabolized |
| NS(=O)(=O)c1cc(C(=O)O)c(NCc2ccco2)cc1Cl [FUROSEMIDE] | Compound NOT metabolized | Compound NOT metabolized | Compound NOT metabolized | Compound NOT metabolized | Compound NOT metabolized | Compound NOT metabolized | Compound NOT metabolized | Compound NOT metabolized | Compound NOT metabolized | Compound NOT metabolized |
| CO[C@H]1C[C@@H]2CC[C@@H](C)[C@@](O)(O2)C(=O)C(=O)N2CCCC[C@H]2C(=O)O[C@H]([C@H](C)C[C@@H]2CC[C@@H](O)[C@H](OC)C2)CC(=O)[C@H](C)/C=C(\C)[C@@H](O)[C@@H](OC)C(=O)[C@H](C)C[C@H](C)/C=C/C=C/C=C/1C [SIROLIMUS] | Compound metabolized | Compound NOT metabolized | Compound NOT metabolized | Compound NOT metabolized | Compound NOT metabolized | Compound NOT metabolized | Compound NOT metabolized | Compound metabolized | Compound NOT metabolized | Compound metabolized |
| C[C@]12C=CC(=O)C=C1CC[C@@H]1[C@@H]2C(=O)C[C@@]2(C)[C@H]1CC[C@]2(O)C(=O)CO [PREDNISONE] | Compound NOT metabolized | Compound NOT metabolized | Compound NOT metabolized | Compound NOT metabolized | Compound NOT metabolized | Compound metabolized | Compound NOT metabolized | Compound metabolized | Compound metabolized | Compound NOT metabolized |
| C[C@]12CCC(=O)C=C1CC[C@@H]1[C@@H]2[C@@H](O)C[C@@]2(C)[C@H]1CC[C@]2(O)C(=O)CO [HYDROCORTISONE] | Compound NOT metabolized | Compound NOT metabolized | Compound NOT metabolized | Compound NOT metabolized | Compound NOT metabolized | Compound NOT metabolized | Compound NOT metabolized | Compound metabolized | Compound metabolized | Compound NOT metabolized |
| C[C@@H]1C[C@H]2[C@@H]3CCC4=CC(=O)C=C[C@]4(C)[C@@]3(F)[C@@H](O)C[C@]2(C)[C@@]1(O)C(=O)CO [DEXAMETHASONE] | Compound NOT metabolized | Compound NOT metabolized | Compound NOT metabolized | Compound NOT metabolized | Compound NOT metabolized | Compound NOT metabolized | Compound NOT metabolized | Compound NOT metabolized | Compound NOT metabolized | Compound NOT metabolized |
| C[C@]12CCC(=O)C=C1CC[C@@H]1[C@@H]2C(=O)C[C@@]2(C)[C@H]1CC[C@]2(O)C(=O)CO [CORTISONE] | Compound NOT metabolized | Compound NOT metabolized | Compound NOT metabolized | Compound NOT metabolized | Compound NOT metabolized | Compound NOT metabolized | Compound NOT metabolized | Compound metabolized | Compound metabolized | Compound NOT metabolized |
| CCOC(=O)C1=C(COCCN)NC(C)=C(C(=O)OC)C1c1ccccc1Cl (centres undefined) [AMLODIPINE] | Compound NOT metabolized | – | Compound NOT metabolized | Compound NOT metabolized | Compound NOT metabolized | Compound NOT metabolized | Compound NOT metabolized | Compound NOT metabolized | Compound NOT metabolized | Compound NOT metabolized |

Continued, in another order:

| Bacterial Biotransformation [1] | Bacterial Biotransformation [2] | Bacterial Biotransformation [4] | Bacterial Biotransformation [5] | Bacterial Biotransformation [6] | Bacterial Biotransformation [7] | Bacterial Biotransformation [8] | Bacterial Biotransformation [9] | Bacterial Biotransformation [10] | SMILES | Bacterial Biotransformation [3] |
| --- | --- | --- | --- | --- | --- | --- | --- | --- | --- | --- |
| Compound NOT metabolized | Compound NOT metabolized | Compound NOT metabolized | Compound NOT metabolized | Compound NOT metabolized | Compound NOT metabolized | Compound NOT metabolized | Compound NOT metabolized | Compound NOT metabolized | CC(C)NCC(O)COc1ccc(CC(N)=O)cc1 (centres undefined) [ATENOLOL] | Compound NOT metabolized |
| Compound NOT metabolized | Compound NOT metabolized | Compound NOT metabolized | Compound NOT metabolized | Compound NOT metabolized | Compound NOT metabolized | Compound metabolized | Compound metabolized | Compound metabolized | COc1ccc([C@@H]2Sc3ccccc3N(CCN(C)C)C(=O)[C@@H]2OC(C)=O)cc1 [DILTIAZEM] | Compound NOT metabolized |
| Compound NOT metabolized | Compound NOT metabolized | Compound NOT metabolized | Compound NOT metabolized | Compound NOT metabolized | Compound NOT metabolized | Compound NOT metabolized | Compound NOT metabolized | Compound NOT metabolized | CNC(=C[N+](=O)[O-])NCCSCc1ccc(CN(C)C)o1 [RANITIDINE] | Compound NOT metabolized |
| Compound NOT metabolized | Compound NOT metabolized | Compound NOT metabolized | Compound NOT metabolized | Compound NOT metabolized | Compound NOT metabolized | Compound metabolized | Compound metabolized | Compound metabolized | COc1c(C)c2c(c(O)c1C/C=C(\C)CCC(=O)OCCN1CCOCC1)C(=O)OC2 [MYCOPHENOLATE MOFETIL] | Compound metabolized |
